Converted amounts (≈) assume the structure as drawn. Like-named read-outs stand apart in the source and are kept apart here. Blank lines part the entries; values can stand above or below the molecule they belong to.
Legend:
[1] = tested on: HT-22 and SH-SY5Y cells; settings: concentration where viability was restored to about 75%, ref [103]; read-out: Effective concentration 50 (EC50), neuroprotection; cited from earlier work
[2] = tested on: Enterococcus faecalis; assay: MIC and MBC evaluation (broth microdilution, agar plate assay); type: cell-based
Experimental: (§1) The MIC and MBC assessment on the pathogenic bacteria and the candidate probiotic lactic acid bacteria was carried out by the broth microdilution assay (BMD) and the agar plate assay, respectively, as described in [4]. The metabolic (dehydrogenase) activity of the lactic acid bacteria was assessed as described in [4].
(§2) P. aeruginosa PAO1 ATCC 15692 was purchased from the American Type Cell Culture Collection (ATCC, Manassas, VA, USA). S. mutans DSM 20523 was bought from the German Collection of Microorganisms and Cell Cultures (DSMZ GmbH, Braunschweig, Germany). All other bacteria and strains were purchased as described in [4].

[3] = tested on: Staphylococcus aureus; assay: as above; type: cell-based; settings: for MBC: read-out: Minimal bactericidal concentration (MBC), Staphylococcus aureus; for MBC/MIC ratio, S. aureus: bactericidal if ≤ 4, bacteriostatic if > 4
Experimental: as §1, §2

[4] = tested on: Methicillin-Resistant S. aureus (MRSA); assay: as above; type: cell-based, Staphylococcus aureus
Experimental: as §1, §2

[5] = tested on: Staphylococcus aureus; settings: ref [4],[29]; cited from earlier work
[6] = tested on: HEK-293 cells; assay: Colony-forming unit assay; type: cell-based, human; settings: for Percentage of colonies, HEK-293: untreated control = 100%
Experimental: (§3) The CFU was also performed according to ISO 10993-5 [56]. Briefly, the cell lines were seeded at a concentration like for the MTT assay in 6-well plates, treated with the chosen agents and left for a 48 h exposure. Then, the cells were trypsinized, and pre-calculated 20 to 100 µL from the cell suspension was added to a sterile Roswell Park Memorial Institute (RPMI) medium (RPMI-A, Capricorn Scientific), containing 20% of the respective cell culture medium for each cell line but with a final concentration of FBS and L-glutamine of 40–42% and 0.8–1.2 mM, respectively, 0.2% NaHCO3 (S6297, Merck Sigma-Aldrich, Saint Louis, MI, USA), and 0.8% methylcellulose (M0512, Merck Sigma-Aldrich) for viscosity. The viscous cell solution was vortexed for 10 s and dispensed in an equal number of cells per well in 6-well plates (1.2 mL per well) in triplicate for each concentration of treatment. HaCaT and HEK-293 were seeded at a concentration of 2500 cells per mL, CCL-1 and HEPG2—2000 cells per mL, and HGF—1000 cells per mL. The plates were incubated for 6 to 10 days, and when the colonies reached 20 to 50 cells per colony, 100 µL MTT salt solution was added to each well. After half an hour, the stained colonies were counted manually using a microscope.

[7] = tested on: HaCaT cells; assay: Colony-forming unit assay; type: cell-based, human; settings: for Colonies per well for HaCaT cells: mean of three wells; for Percentage of colonies, HaCaT: untreated control = 100%
Experimental: as §3

[8] = tested on: HaCaT; assay: MTT assay for cytotoxicity; type: cell-based, human
Experimental: (§4) The MTT assay was performed according to Annex C, ISO 10993-5 [56] as in [116]. The panel of non-tumorigenic cell lines consisted of one murine (CCL-1 fibroblasts, which are recommended as a standard for cytotoxicity evaluation in Annex C of ISO 10993-5 [56]) and four human cell lines—HaCaT (immortalized epidermal keratinocytes), HGF (gingival fibroblasts), HEK-293 (embryonic cells from kidney epithelium), and HEPG2 (hepatoblastoma). Although technically a cancer cell line, HEPG2 is non-tumorigenic and retains many hepatocyte-related features in its proteome and a high degree of morphological and functional differentiation, also being a stage one hepatoblastoma.
(§5) CCL-1 was purchased from ATCC and HaCaT and HGF were bought from CLS Cell Lines Service (GmbH, Eppelheim, Germany). HEK-293 and HEPG2 were obtained from DSMZ. The cell culture medium for HaCaT and HEPG2 was Dulbecco’s Modified Eagle Medium (DMEM) with 4.5 g/L glucose (DMEM-HA). For HGF it was DMEM/F-12 (DMEM-12-A, a 1:1 mixture of DMEM and Ham’s F-12 medium). The cell medium for CCL-1 and HEK-293 was Eagle’s Minimum Essential Medium (MEM) (MEM-A). Ten percent heat-inactivated fetal bovine serum (FBS) was added to all media but to the one for the CCL-1 cells, to which 10% heat-inactivated horse serum was added. All media were supplemented with 2 mM L-glutamine and Penicillin/Streptomycin (Pen/Strep, 100×). The cell culture media, sera, and additives were from Capricorn Scientific (Düsseldorf, Germany).
(§6) GraphPad Prism software version 9 (GraphPad Software Inc., San Diego, CA, USA) was used to calculate the IC50 values from the MTT assays as in [116], as well as the MTC values, and the ELISA standard curves. The MTC values are, according to ISO 10993-5, the maximum concentration at which at least 70% of the cells are viable (nonlin fit, range).

[9] = tested on: HEPG2; assay: MTT assay for cytotoxicity; type: cell-based, human
Experimental: as §4, §5, §6

[10] = tested on: Enterococcus faecalis; settings: ref [4],[29]; cited from earlier work
[11] = tested on: CCL-1; assay: MTT assay for cytotoxicity; type: cell-based, murine
Experimental: as §4, §5, §6

[12] = tested on: Human embryonic kidney-293 (HEK-293); assay: MTT assay for cytotoxicity; type: cell-based
Experimental: as §4, §5, §6

[13] = tested on: Human gingival fibroblasts (HGF); assay: MTT assay for cytotoxicity; type: cell-based
Experimental: as §4, §5, §6

[14] = tested on: CCL-1 cells; assay: Colony-forming unit assay; type: cell-based, murine; settings: for Percentage of colonies, CCL-1: untreated control = 100%
Experimental: as §3

[15] = tested on: Methicillin-Resistant S. aureus (MRSA); settings: ref [4],[29]; cited from earlier work
[16] = tested on: Streptococcus pyogenes; settings: ref [4],[29]; cited from earlier work
[17] = tested on: panel of cancer cell lines; set-up: method as in PMID 39454890; settings: ref [48]; read-out: IC50 against a panel of cancer cell lines; cited from earlier work
[18] = tested on: Pseudomonas aeruginosa PAO1; assay: MIC and MBC evaluation (broth microdilution, agar plate assay); type: cell-based; settings: Pseudomonas aeruginosa, PAO1
Experimental: as §1, §2

[19] = tested on: breast cancer cell line; set-up: method as in PMID 26865836; settings: 24 h, ref [93]; cited from earlier work
[20] = bactericidal if ≤ 4, bacteriostatic if > 4

Compound: COc1ccc(C(=O)CCc2c(OC)cc(O)cc2OC)cc1 [4-hydroxy-2,6,4′-trimethoxydihydrochalcone]
- EC50 [1]: 1.48 µM

Compound: CNC(C)C1CCC(N)C(OC2C(N)CC(N)C(OC3OCC(C)(O)C(NC)C3O)C2O)O1 (stereo not drawn) [Gentamicin, reference compound]
- MBC ([2]; Enterococcus faecalis): 72 µg/mL (≈ 151 µM)
- MBC/MIC ratio, E. faecalis [2, 20]: 9
- MBC ([3]; Staphylococcus aureus): 1.9 µg/mL
- MBC/MIC ratio, S. aureus [3]: 8 ^5
- MBC ([4]; Staphylococcus aureus, MRSA): 2.5 µg/mL (≈ 5.23 µM)
- MBC/MIC ratio, MRSA [4, 20]: 20

Compound: CC(C)=CCC[C@]1(C)[C@@H](CC=C(C)C)C[C@]2(C)C(=O)C(CC=C(C)C)=C(O)[C@@]1(C(=O)C(C)C)C2=O [Hyperpolyphyllirin/hyperibine J]
- MIC on bacteria, S. aureus [5]: 2 µg/mL (≈ 4.14 µM)
- Colonies per well for HEK-293 cells ([6]; 1/2 × IC50, 48 h exposure): 110
- Percentage of colonies, HEK-293 ([6]; 1/2 × IC50): 89%
- Colonies per well for HEK-293 cells ([6]; 2 × IC50, 48 h exposure): 67
- Percentage of colonies, HEK-293 ([6]; 2 × IC50): 54%
- Colonies per well for HEK-293 cells ([6]; IC50, 48 h exposure): 91
- Percentage of colonies, HEK-293 ([6]; IC50): 73%
- Colonies per well for HaCaT cells ([7]; 1/2 × IC50, 48 h exposure): 143
- Percentage of colonies, HaCaT ([7]; 1/2 × IC50): 259%
- Colonies per well for HaCaT cells ([7]; 2 × IC50, 48 h exposure): 58
- Percentage of colonies, HaCaT ([7]; 2 × IC50): 105%
- Colonies per well for HaCaT cells ([7]; IC50, 48 h exposure): 133
- Percentage of colonies, HaCaT ([7]; IC50): 241%
- Minimal bactericidal concentration (MBC), Staphylococcus aureus [3]: 94 µg/mL (≈ 195 µM)
- MBC/MIC ratio, S. aureus [3]: 47
- MBC [3]: 194 µM
- Maximum tolerated concentration (MTC), HaCaT [8]: 0.75 µg/mL
- IC50, HaCaT ([8]; MTT assay): 2.29 µg/mL (≈ 4.74 µM)
- IC50 ([8]; converted to µM): 4.74 µM
- Maximum tolerated concentration (MTC), HEPG2 [9]: 5.13 µg/mL
- IC50, HEPG2 ([9]; MTT assay): 14.33 µg/mL (≈ 29.7 µM)
- IC50 ([9]; converted to µM): 29.7 µM
- MIC on bacteria, E. faecalis [10]: 8 µg/mL (≈ 16.6 µM)
- Maximum tolerated concentration (MTC), CCL-1 [11]: 4.56 µg/mL
- IC50, CCL-1 ([11]; MTT assay): 7.07 µg/mL (≈ 14.6 µM)
- IC50 ([11]; converted to µM): 14.7 µM
- Maximum tolerated concentration (MTC), HEK-293 [12]: 0.46 µg/mL
- IC50, HEK-293 ([12]; MTT assay): 0.79 µg/mL (≈ 1.64 µM)
- IC50 ([12]; converted to µM): 1.64 µM
- Maximum tolerated concentration (MTC), HGF [13]: 10.47 µg/mL
- IC50, HGF ([13]; MTT assay): 12.41 µg/mL (≈ 25.7 µM)
- IC50 ([13]; converted to µM): 25.7 µM
- Colonies per well for CCL-1 cells ([14]; 1/2 × IC50, 48 h exposure): 162
- Percentage of colonies, CCL-1 ([14]; 1/2 × IC50): 111%
- Colonies per well for CCL-1 cells ([14]; 2 × IC50, 48 h exposure): 113
- Percentage of colonies, CCL-1 ([14]; 2 × IC50): 77%
- Colonies per well for CCL-1 cells ([14]; IC50, 48 h exposure): 116
- Percentage of colonies, CCL-1 ([14]; IC50): 79%
- MIC on bacteria, MRSA [15]: 8 µg/mL (≈ 16.6 µM)
- MIC on bacteria, S. pyogenes [16]: 31 µg/mL (≈ 64.2 µM)

Compound: O=c1c(-c2c(O)cc(O)c3c(=O)cc(-c4ccc(O)cc4)oc23)c(-c2ccc(O)cc2)oc2cc(O)cc(O)c12 [I3-II8-biapigenin]
- IC50 [17]: 107 to 198 µM

- MIC [18]: 1.6 µg/mL (≈ 4.17 µM)
Compound: C[C@@H](O)[C@H]1C(=O)N2C(C(=O)O)=C(S[C@@H]3CN[C@H](C(=O)N(C)C)C3)[C@H](C)[C@H]12 [Meropenem, reference compound]
- MBC [18]: 6.4 µg/mL (≈ 16.7 µM)

Compound: N.N.[Cl][Pt][Cl] [cisplatin]
- IC50 for a breast cancer cell line [19]: 20 µg/mL

— PMC12566971, “Polyprenylated Acylphloroglucinols from Hypericum rochelii and Hypericum olympicum—Cytotoxic Effects on Non-Tumorigenic Cell Lines and Antibacterial Potential” (Pharmaceuticals, 2025)
